Measurements: US20150073330A1, “ALZHEIMER'S DISEASE TREATMENT WITH MULTIPLE THERAPEUTIC AGENTS DELIVERED TO THE OLFACTORY REGION THROUGH A SPECIAL DELIVERY CATHETER AND IONTOPHORESIS” (Wedge Therapeutics, LLC, priority 2012, published 2015)
Entries after “also recorded” stand apart in the source; their conditions may differ.

Legend:
[1] = test system: patients with Lyme disease, senile type dementia and early Alzheimer's disease; experiment: 2-4-dinitrophenol in Lyme disease, senile type dementia and early Alzheimer's disease; assay type: in vivo, human; settings: minuscule dose
Source text: Exactly how production and aggregation of the beta amyloid peptide gives rise to the pathology of AD even now not known. Accumulation of aggregated amyloid fibrils, which are believed to be the toxic form of the protein responsible for disrupting the cell's calcium ion homeostasis, induces programmed cell death (apoptosis). It known that Aβ selectively builds up in the mitochondria in the cells of Alzheimer's-affected brains, and it inhibits certain enzyme functions and the utilization of glucose by neurons (Chen X, Yan S D. 2006. “Mitochondrial Aβ: a potential cause of metabolic dysfunction in Alzheimer's disease”. IUBMB Life 58 (12): 686-94.). […] We had to discontinue the study due to federal restriction on such use that is not FDA approved.

[2] = cited from earlier work
[3] = cutaneous T-cell lymphoma, 300-400 mg per m^2 per day for eight weeks; cited from earlier work
[4] = test system: amyloid beta; settings: mice, cited from earlier work
[5] = test system: patients with depression associated with neurodegenerative diseases; experiment: Intranasal ORE ketamine in patients with depression
[6] = in vivo; cited from earlier work
[7] = molecular target: T1, TNF-alpha (Homo sapiens, UniProt P01375); settings: AD patients; cited from earlier work
T1 construct: endogenous in cells; host or cells: AD patients (in vivo)
T1 sequence (P01375 77-233 limits assumed): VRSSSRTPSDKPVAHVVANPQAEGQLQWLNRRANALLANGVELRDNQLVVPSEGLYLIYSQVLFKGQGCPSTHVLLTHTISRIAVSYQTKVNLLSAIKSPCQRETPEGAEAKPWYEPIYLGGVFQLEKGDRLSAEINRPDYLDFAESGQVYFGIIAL

[8] = molecular target: T1, TNF-alpha; experiment: Etanercept administration in AD patients by different routes; assay type: in vivo; settings: compared to perispinal, epispinal or interspinal routes
Source text: CNS Drugs 2009; 23 (9): 713-725. Richard C. Chou, Michael A. Kane, Shiva Gautam and Sanjay Ghirmire. Tumor Necrosis Factor Inhibition Reduces the Incidence of Alzheimer's disease in Rheumatoid Arthritis Patients. Abstracts of the American College of Rheumatology, Nov. 8, 2010, Atlanta Ga., Presentation No. 640). […] It is transported to the CNS through the CSF, not by direct spread by cervical vertebral venous system as perceived (Shantha T R and Evans J A: Arachnoid Villi in the Spinal Cord, and Their Relationship to Epidural Anesthesia. Anesthesiology 37:543-557, 1972).

[9] = test system: receptors in the hippocampus and the frontal cortex; settings: rodent models, intranasal; cited from earlier work
[10] = test system: students taking the comprehensive examination and test; experiment: ORE insulin in students before the comprehensive examination; assay type: in vivo, human; settings: 2-4 IU each side of the nose to the ORE, 1-2 hours before the examination, compared to controls
Description: In a study of students taking the comprehensive examination and test, we prescribed 2-4 IU insulin instilled on each sides of the nose delivered to the ORE in supine position, 1-2 hours before the examination using our delivery device. […] We are planning an expanded study and to analyze statistically to report its positive significance and its use in public speakers (T. R. Shantha, use of olfactory mucosal insulin to enhance the memory and recall before student examinations, written tests and before presentations in front of audience at meetings. Expanded study-under preparation.).

[11] = test system: patients with impaired cognition, depression, PTSD, stroke, concussion, brain injury; experiment: ORE delivery of insulin alone or combined in impaired cognition, depression, PTSD, stroke, concussion and brain injury; assay type: in vivo, human; settings: olfactory mucosal delivery; declining memory in the aged, Parkinson's, depression of many causes
Source text: We also provided the home therapy kit with these therapeutic agents and trained them in the method of delivery to ORE, so that they can administer on their own. Some of the patients received hyperbaric oxygen therapy also.

[12] = cited from earlier work; remark: listed apart in the source
[13] = test system: adults with AD and amnestic mild cognitive impairment; settings: cited from earlier work
[14] = test system: MCF-7 Human Breast Cancer Cells; settings: MCF-7 cells; cited from earlier work

Molecule: O=[N+]([O-])c1ccc(O)c([N+](=O)[O-])c1 [2-4-dinitrophenol]
- complications [1]: without a single complication
- pathological changes, memory and cognition ([1]; unpublished data 2004): reduces these pathological changes and improves the memory and cognition

Molecule: CNC(=O)Oc1ccc2c(c1)[C@]1(C)CCN(C)[C@@H]1N2C [Physostigmine Salicylate]
- pH of aqueous solution ([2]; 0.5% aqueous solution): 5.8
- solubility in water [2]: soluble in water

Molecule: C=C(c1ccc(C(=O)O)cc1)c1cc2c(cc1C)C(C)(C)CCC2(C)C [bexarotene]
- adverse effects of high dose usage [3]: hypertriglyceridemia, hypercholesterolemia and decreased high-density lipoprotein levels, as well as hypothyroidism
- ability to sense and respond to odors ([4]; after bexarotene treatment): improvement in the ability to sense and respond to odors
- nest making behavior ([4]; by 72 hours after the bexarotene treatment): began to use paper to make nests

Molecule: CNC1(c2ccccc2Cl)CCCCC1=O (stereo not shown) [ketamine]
- depressive condition in early cases ([5]; early cases, especially in dementia): completely ameliorated the depressive condition
- depression ([5]; intranasal delivery to the olfactory mucosa, neurodegenerative diseases, cancer, senility, Lyme disease and others): reduced or relieved the depression
- hallucinogenic or other ill effect ([5]; micro doses, 500 micrograms through the ORE): no hallucinogenic or other ill effect; also recorded: no hallucinogenic effect
- pH of the sterile solution for injection ([2]; equivalent of 50 mg ketamine base per milliliter): 3.5 to 5.5
- crossing of the blood brain barrier [6]: easily crosses the BBB

Molecule: N[C@@H](Cc1ccc(O)c(O)c1)C(=O)O [levodopa]
- share that crosses BBB [6]: 5-10%

Molecule: CNC(=O)Oc1ccc2c(c1)[C@]1(C)CCN(C)[C@@H]1N2C [physostigmine]
- crossing of the blood brain barrier [6]: can cross the blood-brain barrier

Molecule: Etanercept
- cognitive abilities after perispinal administration [7]: improve the cognitive abilities of AD patients
- effectiveness of cervical epidural and intranasal ORE delivery [8]: much more effective

Molecule: insulin
- time to binding to receptors in the hippocampus and the frontal cortex [9]: ≤ 60 min
- recall from memory during the test [10]: better and more rapid recall from memory
- test scores [10]: scored higher in test scores
- depression, memory and cognition [11]: reduced the depression, improved the memory, and increased cognition
- time to increased insulin levels in cerebrospinal fluid (CSF) ([12]; human studies, olfactory mucosal intranasal): ≤ 60 min
- effect on blood glucose ([12]; normal adults and patients with Alzheimer's disease): without altering blood glucose
- story recall and functional status ([13]; 3-week daily intranasal insulin, adults with AD and aMCI): improved delayed story recall and caregiver-rated functional status
- memory, attention and functioning ([13]; 21 days olfactory mucosal insulin, early stage AD or mild cognitive impairment, vs placebo): enhanced memory, attention, and functioning compared with placebo
- enhancement of the activity of methotrexate [14]: 10,000 times
